Eleven compounds from patent US12428380B2 (PSYLO PTY LTD, priority 2023, dated 2025) can be followed below.

One may read the Emax as the size of the effect at its maximum, as opposed to the concentration needed. As a reminder, the EC50 is the concentration that produces a half-maximal response.

Holding throughout (assay type): cell-based
Test [1] concerns the target T1, 5-HT2A (Homo sapiens, UniProt P28223).
T1 construct: host or cells: HEK293
The test is described as follows: FLIPR Ca2+ flux functional assay, 5-HT2A (HEK293). Conditions: HEK293 cells expressing 5-HT2A; for Emax: HEK293, agonist activity; for EC50: agonist activity. (Calcium assays in cells follow changes in intracellular calcium, usually with a dye or a luminescent sensor.)

The target in test [2] is T2, 5-HT2B (Homo sapiens, UniProt P41595).
T2 construct: host or cells: CHO-K1
The experiment in a line: Activation in a similar Ca2+ flux assay at a single concentration, 5-HT2B. Conditions: head prints 10 µM. On the procedure:
Activity at 5-HT2A, 5-HT2B and 5-HT2C receptors was determined using a FLIPR Ca2+ flux assay at WuXi AppTec Co. Ltd. (Hong Kong) Discovery Biology Unit according to their standard protocols. Briefly, stably transfected cells expressing the receptor of interest (HEK293 for 5-HT2A and 5-HT2C; CHO-K1 for 5-HT2B) were grown and plated in a 384 well plate and incubated at 37° C. and 5% CO2 overnight. A 250 mM stock solution of probenecid in FLIPR calcium assay buffer (10 mL) was freshly prepared and combined with a fluorescent dye (Fluo-4 Direct) to give a final assay concentration of 2.5 mM. Reference compounds were 4-fold serially diluted and the screening compounds were 3-fold serially diluted in 100% DMSO for 10 points using Agilent Bravo, and 750 nL was added to a 384 well compound plate using Echo along with 30 μL assay buffer. The fluorescent dye was then added to the assay plate along with assay buffer to a final volume of 40 μL. The cell plate was incubated for 50 min at 37° C. and 5% CO2 and placed into the FLIPR Tetra along with the compound plate. 10 μL of references and compounds were then transferred from the compound plate into the cell plate and the fluorescent signal was read.
Activation data are provided in a similar assay tested at a single 10 μM concentration.

The target in test [3] is T3, 5-HT2C (Homo sapiens, UniProt P28335).
T3 construct: host or cells: HEK293
T3 sequence (P28335 33-458): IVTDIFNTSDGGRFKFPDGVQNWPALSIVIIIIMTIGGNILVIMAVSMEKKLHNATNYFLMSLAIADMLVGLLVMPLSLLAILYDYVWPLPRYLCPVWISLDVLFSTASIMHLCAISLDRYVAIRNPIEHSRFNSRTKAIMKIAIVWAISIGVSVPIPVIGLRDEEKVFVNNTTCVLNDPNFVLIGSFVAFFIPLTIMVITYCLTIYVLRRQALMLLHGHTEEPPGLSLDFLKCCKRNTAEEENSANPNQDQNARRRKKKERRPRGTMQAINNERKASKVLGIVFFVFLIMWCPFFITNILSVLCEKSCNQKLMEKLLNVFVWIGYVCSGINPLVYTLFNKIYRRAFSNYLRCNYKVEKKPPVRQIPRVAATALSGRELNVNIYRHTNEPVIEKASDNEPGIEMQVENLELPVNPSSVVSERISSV
The experiment in a line: FLIPR Ca2+ flux functional assay, 5-HT2C (HEK293). Conditions: HEK293 cells expressing 5-HT2C; for Emax: HEK293, agonist activity; for EC50: agonist activity.

SMILES strings stand for the structures. Bounds are passed on as bounds.

T1 sequence (P28223 whole entry): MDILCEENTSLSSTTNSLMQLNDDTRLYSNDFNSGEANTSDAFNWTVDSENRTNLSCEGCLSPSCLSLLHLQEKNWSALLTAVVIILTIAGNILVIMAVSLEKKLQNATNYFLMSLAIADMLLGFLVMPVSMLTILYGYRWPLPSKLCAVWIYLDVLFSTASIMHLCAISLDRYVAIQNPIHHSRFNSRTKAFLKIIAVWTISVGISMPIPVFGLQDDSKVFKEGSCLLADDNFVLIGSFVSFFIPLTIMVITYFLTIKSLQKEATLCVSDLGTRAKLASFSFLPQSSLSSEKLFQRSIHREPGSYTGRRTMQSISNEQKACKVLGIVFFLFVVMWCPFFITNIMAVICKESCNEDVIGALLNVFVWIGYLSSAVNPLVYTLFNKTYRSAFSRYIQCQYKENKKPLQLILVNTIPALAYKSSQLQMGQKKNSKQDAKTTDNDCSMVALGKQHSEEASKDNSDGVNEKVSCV
T2 sequence (P41595 whole entry, species assumed): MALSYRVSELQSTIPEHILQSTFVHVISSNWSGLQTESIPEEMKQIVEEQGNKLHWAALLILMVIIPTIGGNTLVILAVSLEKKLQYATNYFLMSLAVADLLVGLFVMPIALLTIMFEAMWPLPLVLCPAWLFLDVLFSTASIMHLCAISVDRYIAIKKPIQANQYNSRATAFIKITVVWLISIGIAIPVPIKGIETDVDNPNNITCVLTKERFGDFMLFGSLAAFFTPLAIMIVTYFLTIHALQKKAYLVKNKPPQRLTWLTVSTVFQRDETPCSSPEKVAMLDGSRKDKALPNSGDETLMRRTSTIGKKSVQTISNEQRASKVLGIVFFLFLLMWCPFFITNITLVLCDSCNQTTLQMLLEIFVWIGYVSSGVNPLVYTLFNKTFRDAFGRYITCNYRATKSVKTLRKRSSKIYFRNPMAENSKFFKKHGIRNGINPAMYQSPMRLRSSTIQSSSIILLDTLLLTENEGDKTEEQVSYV

For the compound `COc1c(F)ccc2[nH]nc(CCN(C)C(C)C)c12` [Example A3, N-(2-(5-fluoro-4-methoxy-1H-indazol-3-yl)ethyl)-N-methylpropan-2-amine], in test [1], the Emax worked out at 76% and the EC50 is 96.5 nM. Further, the “5-HT2B % Activation @ 10 µM” value in test [2] turned out to be 17%. Besides, in test [3], the maximal response (Emax) came out at 80% and the response was half-maximal at 170 nM (EC50).

Turning to `COc1ccc(F)c2[nH]nc(CCN(C)C)c12` [Example A44, 2-(7-fluoro-4-methoxy-1H-indazol-3-yl)-N,N-dimethylethan-1-amine], the Emax in test [1] is 52%; in test [3], 44%. Besides, the EC50 in test [1] worked out at 93 nM; in test [3] it was 222 nM. In test [2], the “5-HT2B % Activation @ 10 µM” value is on record as 0%.

For the compound `CCN(C)CCc1n[nH]c2ccc(F)cc12` [Example A18, N-ethyl-2-(5-fluoro-1H-indazol-3-yl)-N-methylethan-1-amine], the Emax was found to be 55% in test [1] and 79% in test [3]. Further, the EC50 in test [1] was 264 nM; in test [3], 128 nM. Also, in test [2], the “5-HT2B % Activation @ 10 µM” value stood at 16%.

Turning to `COc1ccc2[nH]nc(CCN(C)C)c2c1F` [Example A9, 2-(4-fluoro-5-methoxy-1H-indazol-3-yl)-N,N-dimethylethan-1-amine], the Emax in test [1] came out at 75%; in test [3] it was 73%. Besides, the results for the EC50 in test [1] and in test [3] were 809 nM and 1100 nM, respectively. Moreover, the “5-HT2B % Activation @ 10 µM” value in test [2] worked out at 0%.

In test [1], `COc1ccc2[nH]nc(CCNCc3cccc(F)c3)c2c1` [Example A65, N-(3-fluorobenzyl)-2-(5-methoxy-1H-indazol-3-yl)ethan-1-amine] showed an Emax of 70% and an EC50 of 91.6 nM. Further, in test [2], the “5-HT2B % Activation @ 10 µM” value was determined as 1%. In test [3], this compound displayed an Emax of 81% and an EC50 of 891 nM.

For `COc1ccccc1CNCCc1n[nH]c2ccc(F)c(F)c12` [Example A74, 2-(4,5-difluoro-1H-indazol-3-yl)-N-(2-methoxybenzyl)ethan-1-amine], the results for the Emax in test [1] and in test [3] were 89% and 95%, respectively. Also, the concentration for a half-maximal effect (EC50) stood at 59.5 nM in test [1] and 133 nM in test [3]. The “5-HT2B % Activation @ 10 µM” value in test [2] worked out at 0%.

In test [1], `CC(C)N(C)CCc1n[nH]c2c(F)cc(F)cc12` [Example A37, N-(2-(5,7-difluoro-1H-indazol-3-yl)ethyl)-N-methylpropan-2-amine] yielded an Emax of 57% and an EC50 of 810 nM. Also, the “5-HT2B % Activation @ 10 µM” value in test [2] is listed as 0%. Moreover, in test [3], the Emax was determined as 11% and the EC50 was > 10000 nM.

With `COc1cc2c(CCN3CCC3)n[nH]c2cc1F` [Example A56, 3-(2-(azetidin-1-yl)ethyl)-6-fluoro-5-methoxy-1H-indazole], in test [1], the Emax worked out at 90% and it took 105 nM to reach a half-maximal effect (EC50). For the same compound, in test [2], the “5-HT2B % Activation @ 10 µM” value was determined as 11%. In test [3], this compound came in with an Emax of 50% and a concentration giving a half-maximal response (EC50) of 3070 nM.

In the case of `CCN(C)CCc1n[nH]c2c(F)cc(OC)cc12` [Example A51, N-ethyl-2-(7-fluoro-5-methoxy-1H-indazol-3-yl)-N-methylethan-1-amine], in test [1], the Emax was found to be 85% and it took 88 nM to reach a half-maximal effect (EC50). Further, in test [2], the “5-HT2B % Activation @ 10 µM” value is given as 1%. In test [3], this compound had an Emax of 43% and an EC50 of 1370 nM.

Regarding `COc1ccc(F)c2[nH]nc(CCN3CCC3)c12` [Example A47, 3-(2-(azetidin-1-yl)ethyl)-7-fluoro-4-methoxy-1H-indazole], in test [1], the Emax turned out to be 88% and a half-maximal effect (EC50) was put at 105 nM. The “5-HT2B % Activation @ 10 µM” value in test [2] is 17%. In test [3], this compound had a maximum response (Emax) of 72% and an EC50 of 64 nM.

Consider `COc1cc2c(CCN3CCC4CC43)n[nH]c2cc1F` (stereo not shown) [Example A60, 3-(2-(2-azabicyclo[3.1.0]hexan-2-yl)ethyl)-6-fluoro-5-methoxy-1H-indazole], for which, in test [1], the Emax was 92% and the EC50 came to 8.12 nM. Further, the “5-HT2B % Activation @ 10 µM” value in test [2] is listed as 89%. In test [3], this compound had an Emax of 90% and an EC50 of 255 nM.
